# Reference: patent publication US20090221559A1 (priority 2005, published 2009)
# pEC50, pIC50: −log10 of the molar value. Like-named read-outs stand apart in the source and are kept apart here.
# Columns and labels:
# [1] = target: T1, HCV NS5B polymerase (His-tagged, C-terminal 21 amino acid deleted NS5B, HC-J4) (Hepatitis C virus genotype 1b, UniProt O92972); assay: NS5b polymerase assay (biochemical RdRp assay, 3H-GTP incorporation, SPA beads); set-up: species or system HCV genotype 1b; conditions: for IC50: NS5B Polymerase Assay IC50 (μM); for pIC50: 3H-GTP incorporation, 2 h at 25° C.
# T1 construct: The cDNA encoding NS5B amino acid 1-570 (HC-J4, genotype 1b); His tag (His6, from pET-21b) (C); made in house; host or cells: E. coli BL21 (DE3)
# T1 sequence (O92972 2417-3000, looked up, stated change not applied): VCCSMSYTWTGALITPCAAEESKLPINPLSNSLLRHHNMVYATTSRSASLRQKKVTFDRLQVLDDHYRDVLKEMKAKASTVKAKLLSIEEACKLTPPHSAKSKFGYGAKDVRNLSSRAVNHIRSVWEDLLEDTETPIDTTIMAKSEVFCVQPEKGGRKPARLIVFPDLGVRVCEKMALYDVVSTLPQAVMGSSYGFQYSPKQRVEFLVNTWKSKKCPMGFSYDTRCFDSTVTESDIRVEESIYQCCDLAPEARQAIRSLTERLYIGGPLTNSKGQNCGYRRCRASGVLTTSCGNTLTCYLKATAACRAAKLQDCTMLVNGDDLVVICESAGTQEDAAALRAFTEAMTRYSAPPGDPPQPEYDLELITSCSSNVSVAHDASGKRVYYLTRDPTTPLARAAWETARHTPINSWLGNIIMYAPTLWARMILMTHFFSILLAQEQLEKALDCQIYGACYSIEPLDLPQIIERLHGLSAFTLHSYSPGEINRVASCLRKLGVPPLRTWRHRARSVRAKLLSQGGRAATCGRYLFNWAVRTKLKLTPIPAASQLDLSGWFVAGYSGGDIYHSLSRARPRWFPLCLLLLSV
# Summary of the method: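 His-tagged C-terminal-21-aa-deleted NS5B (genotype 1b, HC-J4) at 200 nM was preincubated 15 min at RT with compound on 5′-biotinylated oligo(rG13)/poly(rC) template/primer before NTPs. Reaction with 600 nM GTP plus 0.1 μCi 3H-GTP and 5 mM MgCl2 in Tris pH 7.5 ran 2 h at 25 °C. Stopped with EDTA/SPA beads for incorporation counting.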
# [2] = tested on: HCV replicon RNA replication in Huh-7 luc/neo (Huh-Luc) cells; assay: HCV replicon assay (stable replicon cell reporter assay, luciferase read-out); assay type: cell-based, HCV type 1b; conditions: for EC50: read-out: Replicon Assay EC50 (μM), Huh-Luc cells, incubation of three days, luciferase activity
# Summary of the method: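 Huh-7 cells stably carry a bicistronic HCV 1b NS3-NS5B subgenomic replicon with firefly luciferase and neo markers. Cells were plated with compound across a concentration range and incubated three days. Replication was measured as luciferase activity to give dose-response curves.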
# [3] = NS5B Polymerase Assay IC50, 200 nM enzyme
# [4] = Hepatitis C virus, Huh-7, 72 h, read-out: Replicon Assay EC50, Huh-Luc cells, three days incubation, luciferase activity
# [5] = 200 nM enzyme, read-out: NS5B Polymerase Assay IC50
# [6] = Huh-Luc cells, three days incubation, luciferase activity, read-out: Replicon Assay EC50
structure (smiles),measurement,setting,value
Cc1cccc2c1NC1=C(C(=O)CC(C)(C)C1)C(c1ccc(Cl)cc1Cl)N2 (stereo not shown) [compound 471],melting point,,225 °C
same,IC50,[1],> 133 µM
same,EC50,"[2]; Hepatitis C virus, Huh-7, 72 h",14.7 µM
CC1(C)CC(=O)C2=C(C1)Nc1ccccc1N(C(=O)Cc1ccccc1)C2c1ccc(Cl)cc1Cl (stereo not shown) [compound 154],melting point,,> 260 °C
same,pIC50,[1]; [3],3.91
same,pEC50,[2]; [4],5.26
CC(=O)N1c2c(C#N)cccc2NC2=C(C(=O)CC(C)(C)C2)C1c1ccc(Cl)cc1Cl (stereo not shown) [compound 313],melting point,,248 °C
same,pIC50,[1]; [3],5.22
same,pEC50,[2]; [4],4.56
COC(=O)c1ccc2c(c1)N(C(C)=O)C(c1ccc(Cl)cc1Cl)C1=C(CC(C)(C)CC1=O)N2 (stereo not shown),melting point,,> 250 °C
CC(=O)N1c2c(cccc2C(=O)NCCc2ccncc2)NC2=C(C(=O)CC(C)(C)C2)C1c1ccc(Cl)cc1Cl (stereo not shown),melting point,,> 260 °C
CC1(C)CC(=O)C2=C(C1)Nc1cccc(CO)c1NC2c1ccc(Cl)cc1Cl (stereo not shown),melting point,,> 260 °C
CC(=O)N1c2c(CNCCc3ccncc3)cccc2NC2=C(C(=O)CC(C)(C)C2)C1c1ccc(Cl)cc1Cl (stereo not shown),melting point,,212 °C
CC(=O)N1c2c(CNCCN3CCOCC3)cccc2NC2=C(C(=O)CC(C)(C)C2)C1c1ccc(Cl)cc1Cl (stereo not shown),melting point,,236 °C
CC(=O)N1c2c(CN3CCOCC3)cccc2NC2=C(C(=O)CC(C)(C)C2)C1c1ccc(Cl)cc1Cl (stereo not shown),melting point,,> 260 °C
CC(=O)N1c2c(cccc2C(=O)O)NC2=C(C(=O)CC(C)(C)C2)C1c1ccc(Cl)cc1Cl (stereo not shown),melting point,,> 260 °C
CC1(C)CC(=O)C2=C(C1)Nc1cc(C(=O)O)ccc1NC2c1ccc(Cl)cc1Cl (stereo not shown),melting point,,> 250 °C
CC1(C)CC(=O)C2=C(C1)Nc1ccccc1N(C(=O)N1CCCCC1)C2c1ccc(Cl)cc1Cl (stereo not shown) [compound 155],melting point,,> 260 °C
same,pIC50,[1]; [3],< 3.88
C=CCCC(=O)N1c2ccccc2NC2=C(C(=O)CC(C)(C)C2)C1c1ccc(Cl)cc1Cl (stereo not shown),melting point,,200 °C
CC1(C)CC(=O)C2=C(C1)Nc1ccccc1N(C(=O)CC(=O)O)C2c1ccc(Cl)cc1Cl (stereo not shown),melting point,,200 °C
CNCc1ccc2c(c1)NC1=C(C(=O)CC(C)(C)C1)C(c1ccc(Cl)cc1Cl)N2C(C)=O (stereo not shown),melting point,,> 260 °C
CC(=O)N1c2ccc(CCCN)cc2NC2=C(C(=O)CC(C)(C)C2)C1c1ccc(Cl)cc1Cl (stereo not shown),melting point,,242 °C
CC1(C)CC(=O)C2=C(C1)Nc1ccc(CO)cc1NC2c1ccc(Cl)cc1Cl (stereo not shown),melting point,,168 °C
CC(=O)N1c2c(CNCCCN(C)C)cccc2NC2=C(C(=O)CC(C)(C)C2)C1c1ccc(Cl)cc1Cl (stereo not shown),melting point,,258 °C
CC(=O)N1c2ccccc2N(C)C2=C(C(=O)CC(C)(C)C2)C1c1ccc(Cl)cc1Cl (stereo not shown) [compound 322],melting point,,145 °C
same,pEC50,[2]; [4],4.36
COC(=O)c1ccc2c(c1)NC1=C(C(=O)CC(C)(C)C1)C(c1ccc(Cl)cc1Cl)N2C(C)=O (stereo not shown),melting point,,> 250 °C
CC(=O)N1c2ccc(CN)cc2NC2=C(C(=O)CC(C)(C)C2)C1c1ccc(Cl)cc1Cl (stereo not shown),melting point,,> 260 °C
CC(=O)N1c2ccccc2NC2=C(C(=O)CC(C)(C)C2)C1/C(Cl)=C/c1ccccc1 (stereo not shown),melting point,,258 °C
CC(=O)N1c2cc(C#N)ccc2NC2=C(C(=O)CC(C)(C)C2)C1c1ccc(Cl)cc1Cl (stereo not shown) [compound 318],melting point,,> 250 °C
same,pIC50,[1]; [3],4.17
CC(=O)N1c2ccc(CN(C)C)cc2NC2=C(C(=O)CC(C)(C)C2)C1c1ccc(Cl)cc1Cl (stereo not shown),melting point,,> 260 °C
CC(=O)N1c2c(cccc2C(=O)NCCCN(C)C)NC2=C(C(=O)CC(C)(C)C2)C1c1ccc(Cl)cc1Cl (stereo not shown),melting point,,226 °C
CC1(C)CC(=O)C2=C(C1)Nc1cc(CO)ccc1NC2c1ccc(Cl)cc1Cl (stereo not shown),melting point,,160 °C
CCOC(=O)c1cccc2c1NC(c1ccc(Cl)cc1Cl)C1=C(CC(C)(C)CC1=O)N2 (stereo not shown),melting point,,208 °C
CC(=O)N1c2c(CO)cccc2NC2=C(C(=O)CC(C)(C)C2)C1c1ccc(Cl)cc1Cl (stereo not shown),melting point,,200 °C
CCn1c2ccccc2c2cc([C@@H]3Nc4ccccc4NC4=C3C(=O)C[C@@H](c3ccc(OC)c(OC)c3)C4)ccc21 [compound 477],IC50,[1],> 42.7 µM
same,EC50,"[2]; Hepatitis C virus, Huh-7, 72 h",4.49 µM
CC1(C)CC(=O)C2=C(C1)Nc1ccccc1NC2c1ccccc1C(=O)O (stereo not shown) [compound 432],IC50,[1],> 42.7 µM
same,EC50,"[2]; Hepatitis C virus, Huh-7, 72 h",17.7 µM
COc1ccc(C2CC(=O)C3=C(C2)Nc2ccccc2NC3c2ccc(N(C)C)cc2)cc1 (stereo not shown) [compound 328],IC50,[1],> 42.7 µM
same,EC50,"[2]; Hepatitis C virus, Huh-7, 72 h",22.7 µM
O=C1CC(c2ccc(Cl)cc2)CC2=C1C(c1cccc(Cl)c1Cl)Nc1ccccc1N2 (stereo not shown) [compound 346],IC50,[1],> 42.7 µM
same,EC50,"[2]; Hepatitis C virus, Huh-7, 72 h",24.6 µM
CCOc1ccccc1C1C2=C(CC(c3ccc(OC)cc3)CC2=O)Nc2ccccc2N1C(=O)C(F)(F)F (mixture of isomers) [compound 216],pIC50,[1]; [5],< 4.37
same,pEC50,[2]; [6],4.60
"CC(=O)N1c2ccccc2NC2=C(C(=O)CC(C)C2)C1c1ccc(Cl)cc1Cl (stereo not shown) [compound 294, 10-acetyl-11-(2,4-dichlorophenyl)-3-methyl-2,3,4,5,10,11-hexahydro-1H-dibenzo[b,e][1,4]diazepin-1-one]",pIC50,[1]; [3],4.98
same,pEC50,[2]; [4],4.38
O=C1CC(c2ccc(Cl)cc2)CC2=C1C(c1cccc(Cl)c1)Nc1ccccc1N2 (stereo not shown) [compound 350],IC50,[1],25.1 µM
same,EC50,"[2]; Hepatitis C virus, Huh-7, 72 h",5.21 µM
COc1c(Cl)cc(Cl)cc1C1C2=C(CC(C)(C)CC2=O)Nc2ccccc2N1C(=O)Cc1ccccc1 (stereo not shown) [compound 15],pIC50,[1]; [3],< 4.37
same,pEC50,[2]; [4],5.51
Cc1ccc(C2CC(=O)C3=C(C2)Nc2ccccc2N(C(=O)c2ccccc2)C3c2cccc(Cl)c2)cc1 (mixture of isomers) [compound 204],pIC50,[1]; [5],< 4.48
same,pEC50,[2]; [6],5.00
Cc1ccc(C2Nc3ccccc3NC3=C2C(=O)CC(c2ccc(Cl)cc2)C3)cc1 (stereo not shown) [compound 409],IC50,[1],> 33.3 µM
same,EC50,"[2]; Hepatitis C virus, Huh-7, 72 h",14.9 µM
CC1(C)CC(=O)C2=C(C1)Nc1ccccc1N(C(=O)C(F)(F)F)C2c1cccc(Cl)c1Cl (stereo not shown) [compound 25],pIC50,[1]; [3],< 4.37
same,pEC50,[2]; [4],4.61
CC1(C)CC(=O)C2=C(C1)Nc1ccccc1N(C(=O)C(F)(F)F)C2c1ccc([N+](=O)[O-])cc1 (stereo not shown) [compound 89],pIC50,[1]; [3],< 4.37
same,pEC50,[2]; [4],5.27
CCN(CC)c1ccc(C2Nc3ccccc3NC3=C2C(=O)CC(c2ccc(OC)cc2)C3)cc1 (stereo not shown) [compound 363],IC50,[1],> 42.7 µM
same,EC50,"[2]; Hepatitis C virus, Huh-7, 72 h",25.8 µM
CC(=O)N1c2ccccc2NC2=C(C(=O)CC(C)(C)C2)C1c1ccc(C)o1 (stereo not shown) [compound 283],pIC50,[1]; [3],< 4.37
same,pEC50,[2]; [4],< 4.49
CCOc1cccc(C2Nc3ccccc3NC3=C2C(=O)CC(c2ccccc2)C3)c1 (stereo not shown) [compound 410],IC50,[1],> 33.3 µM
same,EC50,"[2]; Hepatitis C virus, Huh-7, 72 h",22.6 µM
CC(C)C(=O)N1c2ccccc2NC2=C(C(=O)CC(C)(C)C2)C1c1ccc(OCc2ccccc2)cc1 (stereo not shown) [compound 99],pIC50,[1]; [3],< 4.37
same,pEC50,[2]; [4],5.43
COc1ccc(C2CC(=O)C3=C(C2)Nc2ccccc2NC3c2ccc(OCc3ccccc3)c(OC)c2)cc1 (stereo not shown) [compound 385],IC50,[1],> 42.7 µM
same,EC50,"[2]; Hepatitis C virus, Huh-7, 72 h",3.54 µM
CC(=O)N1c2ccc(C(=O)O)cc2NC2=C(C(=O)CC(C)(C)C2)C1c1ccc(Cl)cc1Cl (stereo not shown),melting point,,> 250 °C
COc1ccc(C2CC(=O)C3=C(C2)Nc2ccccc2NC3c2ccc([N+](=O)[O-])cc2)cc1 (stereo not shown) [compound 387],IC50,[1],> 42.7 µM
same,EC50,"[2]; Hepatitis C virus, Huh-7, 72 h",5.56 µM
COc1ccccc1C1C2=C(CC(C)(C)CC2=O)Nc2ccccc2N1C(=O)Cc1ccccc1 (stereo not shown) [compound 81],pIC50,[1]; [3],< 4.37
same,pEC50,[2]; [4],5.17
CCCN(C)Cc1cccc2c1N(C(C)=O)C(c1ccc(Cl)cc1Cl)C1=C(CC(C)(C)CC1=O)N2 (stereo not shown),melting point,,> 260 °C
CCN(CC)c1ccc(C2CC(=O)C3=C(C2)Nc2ccccc2NC3c2ccccc2)cc1 (stereo not shown) [compound 376],IC50,[1],> 42.7 µM
same,EC50,"[2]; Hepatitis C virus, Huh-7, 72 h",9.45 µM
COc1c(Cl)cc(Cl)cc1C1C2=C(CC(C)(C)CC2=O)Nc2ccccc2N1C(=O)C(F)(F)F (stereo not shown) [compound 116],pIC50,[1]; [3],< 4.37
same,pEC50,[2]; [4],< 4.49
"COc1cc2c(cc1OC)NC(c1ccc(Cl)cc1Cl)C1=C(CC(C)(C)CC1=O)N2 (stereo not shown) [compound 467, 7,8-dimethoxy-11-(2,4-dichlorophenyl)-3,3-dimethyl-2,3,4,5,10,11-hexahydro-1H-dibenzo[b,e][1,4]diazepin-1-one]",IC50,[1],> 133 µM
same,EC50,"[2]; Hepatitis C virus, Huh-7, 72 h",30 µM
"Cc1cc2c(cc1C)NC(c1ccc(Cl)cc1Cl)C1=C(CC(C)(C)CC1=O)N2 (stereo not shown) [compound 464, 11-(2,4-Dichlorophenyl)-2,3,4,5,10,11-hexahydro-3,3,7,8-tetramethyl-1H-dibenzo[b,e][1,4]diazepin-1-one]",IC50,[1],> 133 µM
same,EC50,"[2]; Hepatitis C virus, Huh-7, 72 h",82.7 µM
Cc1ccc(C2CC(=O)C3=C(C2)Nc2ccccc2N(C(=O)CCC(=O)O)C3c2ccc(C)cc2)cc1 (stereo not shown) [compound 161],pIC50,[1]; [3],4.52
same,pEC50,[2]; [4],< 4.60
CCOc1ccc(C2C3=C(CC(C)(C)CC3=O)Nc3ccccc3N2C(=O)Cc2ccc(Cl)cc2)cc1 (stereo not shown) [compound 85],pIC50,[1]; [3],< 4.37
same,pEC50,[2]; [4],4.67
"CCN1c2ccccc2NC2=C(C(=O)CC(C)(C)C2)C1c1ccc(Cl)cc1Cl (stereo not shown) [compound 508, 11-(2,4-dichlorophenyl)-10-ethyl-2,3,4,5,10,11-hexahydro-3,3-dimethyl1H-dibenzo[b,e][1,4]diazepin-1-one]",IC50,[1],> 42.7 µM
same,EC50,"[2]; Hepatitis C virus, Huh-7, 72 h",1.37 µM
